Where two headings read alike, the source gives them in different places. Where no end group is shown, it is not given here.
Assays:
CoaBa [1] = experiment: Anti-CoaBa IgG subtypes induced with TLR4 agonist, ELISA (Example 10); assay type: in vivo, C57/BL/6 mice; parameters: unit not given here; settings: booster day 14, serum 14 days post-secondary
CoaBa [2] = experiment: as above; assay type: in vivo, C57/BL/6 mice; parameters: Mean total IgG / Mean IgG1 / Mean IgG2b: unit not given here; settings: for Mean IgG1 / Mean IgG2b / Mean total IgG: booster day 14, serum 14 days post-secondary
Method: Female C57/BL/6 mice aged 6-8 weeks old (5 per group) were vaccinated intramuscularly with […] of CoaBa-CRM conjugate in combination with indicated dose of TLR4 agonist Adjuvant A. A booster with respective dose of adjuvant combination with 1 μg of CoaBa-CRM conjugate was administered 14 days post primary. ELISA data are from serum collected 14 days postsecondary vaccination boost. (A) Total IgG, (B) IgG1, (C) IgG2a isotypes are shown.

CoaBa1 hapten = experiment: Adjuvant system for CoaB-CRM conjugate, total serum IgG ELISA (Example 9); assay type: in vivo, C57/BL/6 mice; settings: for Mean Log10 total serum IgG titer: booster day 14, serum 14 days post-secondary
Method: The lead CoaB vaccines consist of a peptide hapten conjugated to CRM197. To determine whether TLR7 and TLR4 adjuvants would provide a beneficial effect on antibody titres or provide a dose sparing effect, female C57/BL/6 mice aged 6-8 weeks old (10 per group) were vaccinated intramuscularly with 1 μg of CoaBa-CRM conjugate in combination with indicated dose of (Adjuvant B), a TLR 7/8 adjuvant, and or (Adjuvant A) a TLR4 adjuvant. A booster with respective dose of adjuvant combination with […] of CoaBa-CRM conjugate was administered 14 days post primary. ELISA data is from serum collected 14 days post-secondary vaccination boost.

CoaBa2 = experiment: Total IgG ELISA, plate coated with CoaBa2 (Example 11); assay type: in vivo, C57/BL/6 mice; settings: for Total IgG ELISA plate coated with CoaBa2: 1 μg conjugate IM, with 1 μg Adj A where named, booster day 14, serum 14 days post-secondary
Method: (§1) Female C57/BL/6 mice aged 6-8 weeks old (8 per group) were vaccinated intramuscularly with 1 μg of CoaBa-CRM or […] of CoaBb-CRM conjugate in combination with […] dose of TLR 4 agonist Adjuvant A. A booster with 1 μg dose of Adjuvant A adjuvant combination with 1 μg of respective conjugate was administered 14 days post primary. ELISA data is from serum collected 14 days post-secondary vaccination boost. CoaBa1 within-clade cross reactive immunity against coaBa2 was determined. (Tables 15 and 16). Clade A CoaBa cross-reactive immunity against Clade B CoaBb epitope was determined. (Table 17).

CoaBa1 = experiment: Total IgG ELISA, plate coated with CoaBa1 (Example 11); assay type: in vivo, C57/BL/6 mice; settings: for Total IgG ELISA plate coated with CoaBa1: 1 μg conjugate IM, with 1 μg Adj A where named, booster day 14, serum 14 days post-secondary; for cross-reactivity to CoaBa1 (in words): vaccination, Tables 16 and 17 cited in text
Method: as §1

CoaBb1 = experiment: Total IgG ELISA, plate coated with CoaBb1 (Example 11); assay type: in vivo, C57/BL/6 mice; settings: 1 μg conjugate IM, with 1 μg Adj A where named; booster day 14; serum 14 days post-secondary
Method: as §1

[3] = cited from earlier work
sheep red blood cells = settings: cited from earlier work
[4] = target: CoaBa (Pseudomonas aeruginosa filamentous (Pf) bacteriophage); experiment: anti-CoaBa serum ELISA; 14 days post boost; C57BL/6
[5] = 0.001 μg Adj A with 1 μg CoaBa-CRM conjugate IM
[6] = 0.01 μg Adj A with 1 μg CoaBa-CRM conjugate IM
[7] = 0.1 μg Adj A with 1 μg CoaBa-CRM conjugate IM
[8] = 10 μg Adj A with 1 μg CoaBa-CRM conjugate IM
[9] = 0.0001 μg Adj A with 1 μg CoaBa-CRM conjugate IM
[10] = 1 μg Adj A with 1 μg CoaBa-CRM conjugate IM

**Q.** Which “Mean IgG2b” value (CoaBa [1]; [5]) does the source give for `CCCCCCCCCCC[C@H](CC(=O)NCCO[C@@H]1OC(CO)[C@@H](OS(=O)(=O)O)[C@H](NC(=O)C[C@@H](CCCCCCCCCCC)OC(=O)CCCCCCCCC)C1NC(=O)C[C@@H](CCCCCCCCCCC)OC(=O)CCCCCCCCC)OC(=O)CCCCCCCCC` (stereo partly shown) [Adjuvant A] here?
**A.** The value was 1.22.

**Q.** What about the “Mean IgG2b” value (CoaBa [1]; [6]) of the same compound?
**A.** Its value is 2.45.

**Q.** What about the “Mean IgG2b” value (CoaBa [1]; [7]) of the same compound?
**A.** Its value is 3.90.

**Q.** And the “Mean IgG2b” value (CoaBa [1]; [8])?
**A.** The value was 3.31.

**Q.** What about the “Mean IgG1” value (CoaBa [2]; [9]) of the same compound?
**A.** Its value is 0.95.

**Q.** What about the “Mean IgG2b” value (CoaBa [2]; [9]) of the same compound?
**A.** Its value is 1.02.

**Q.** And the “Mean total IgG” value (CoaBa [2]; [9])?
**A.** Its value is 1.27.

**Q.** And the “Mean IgG1” value (CoaBa [2]; [5])?
**A.** The value was 1.86.

**Q.** What about the “Mean total IgG” value (CoaBa [2]; [5]) of the same compound?
**A.** The value was 2.38.

**Q.** And the “Mean IgG1” value (CoaBa [2]; [6])?
**A.** Its value is 1.99.

**Q.** And the “Mean total IgG” value (CoaBa [2]; [6])?
**A.** The value was 3.15.

**Q.** And the “Mean IgG1” value (CoaBa [2]; [7])?
**A.** Its value is 2.45.

**Q.** What about the “Mean total IgG” value (CoaBa [2]; [7]) of the same compound?
**A.** Its value is 4.00.

**Q.** And the “Mean IgG1” value (CoaBa [2]; [10])?
**A.** The value was 3.60.

**Q.** What about the “Mean IgG2b” value (CoaBa [2]; [10]) of the same compound?
**A.** The value was 4.31.

**Q.** What about the “Mean total IgG” value (CoaBa [2]; [10]) of the same compound?
**A.** The value was 4.19.

**Q.** And the “Mean IgG1” value (CoaBa [2]; [8])?
**A.** The value was 2.88.

**Q.** And the “Mean total IgG” value (CoaBa [2]; [8])?
**A.** The value was 4.25.

**Q.** And the “IgG subtype analysis (in words)” value (CoaBa [2]; adjuvanting CoaBa with Adjuvant A)?
**A.** Its value is “elicited both IgG1 and IgG2b subclasses”.

**Q.** And the “Mean Log10 total serum IgG titer” value (CoaBa1 hapten; [6])?
**A.** The value was 3.74 Log10.

**Q.** And the “Mean Log10 total serum IgG titer” value (CoaBa1 hapten; [7])?
**A.** The value was 4.55 Log10.

**Q.** What about the “Mean Log10 total serum IgG titer” value (CoaBa1 hapten; [10]) of the same compound?
**A.** Its value is 5.12 Log10.

**Q.** And the “antibody titers against the CoaBa1 hapten (in words)” value (CoaBa1 hapten; vaccine dose experiments with 1 μg CoaBa-CRM conjugate)?
**A.** Its value is “produced the highest antibody titers against the CoaBa1 hapten”.

**Q.** Which results are given for “CoaBa1: CoaBa1 hapten-CRM197 conjugate vaccine (GVIDTSAVESAITDGQGD; not fully specified)”?
**A.** Total IgG ELISA plate coated with CoaBa2 (CoaBa2): 0.5; cross-reactivity to CoaBa2-CRM197 (in words) (CoaBa2; vaccination, Table 15 cited in text): produced cross-reactivity to CoaBa2-CRM197; Total IgG ELISA plate coated with CoaBa1 (CoaBa1): 0.50; Total IgG ELISA plate coated with CoaBb1 (CoaBb1): 0.5

**Q.** For “CoaBa2: CoaBa2 hapten-CRM197 conjugate vaccine (GSVIDTSAVEAAITEGKGD; not fully specified)”, which “Total IgG ELISA plate coated with CoaBa2” value (CoaBa2) is on record?
**A.** Its value is 0.5.

**Q.** And the “Total IgG ELISA plate coated with CoaBa1” value (CoaBa1)?
**A.** Its value is 0.50.

**Q.** And the “cross-reactivity to CoaBa1 (in words)” value (CoaBa1)?
**A.** Its value is “produced cross-reactivity to CoaBa1-CRM197”.

**Q.** Which results are given for “CoaBb1: CoaBb-CRM conjugate vaccine, subclade b1 (ADSLIDETTKEVLTQAGTDG; also: conjugated to CRM carrier, site not given here)”?
**A.** cross-reactivity to CoaBa1 (in words) (CoaBa1): did not produce cross-reactive immunity to clade A subtypes CoaBa1; Total IgG ELISA plate coated with CoaBb1 (CoaBb1): 0.5

**Q.** Which results are given for QS-17?
**A.** critical micellar concentration ([3]; in phosphate buffered saline): 0.03 % (w/v); critical micellar concentration ([3]; in water): 0.06 % (w/v); concentrations causing hemolysis of sheep red blood cells (sheep red blood cells): ≥ 25000 ng/mL

**Q.** Which critical micellar concentration ([3]; in phosphate buffered saline) does the source give for QS-18 here?
**A.** The critical micellar concentration was 0.02 % (w/v).

**Q.** What about the critical micellar concentration ([3]; in water) of the same compound?
**A.** The critical micellar concentration was 0.04 % (w/v).

**Q.** For QS-21, which critical micellar concentration ([3]; in phosphate buffered saline) is on record?
**A.** Its critical micellar concentration is ~0.02 % (w/v).

**Q.** And the critical micellar concentration ([3]; in water)?
**A.** Its critical micellar concentration is “about 0.03 % (w/v)”.

**Q.** And the “concentrations causing hemolysis of sheep red blood cells” value (sheep red blood cells)?
**A.** Its value is ≥ 25000 ng/mL.

**Q.** Which Mean IgG1 [4] does the source give for serum of naïve (unvaccinated) mice here?
**A.** Its Mean IgG1 is 0.5.

**Q.** And the Mean IgG2b [4]?
**A.** The Mean IgG2b was 0.5.

**Q.** What about the Mean total IgG [4] of the same compound?
**A.** The Mean total IgG was 0.5.

Source: US20240325517A1, “COMPOSITIONS AND METHODS TARGETING FILAMENTOUS BACTERIOPHAGE” (THE UNIVERSITY OF MONTANA, priority 2020, published 2024)
